Data: patent US20160192641A1, “STABLE EMULSION FORMULATION HINDERING INTERACTION ACROSS THE WATER-OIL INTERFACE” (Dow AgroSciences LLC, priority 2007, published 2016)

From the text: For a given oil phase which is often designed to meet specific market, customer, or application needs, actives or other components in aqueous phase can form and grow large crystals in oil phase due to high solubilities and Oswald Ripening, and result in emulsion destabilization.

O=C(Nc1ccc(F)cc1F)c1cccnc1Oc1cccc(C(F)(F)F)c1 [diflufenican]
solubility in methyl soyate: > 1 % by wt

COc1cnc(OC)n2nc(NS(=O)(=O)c3c(OCC(F)F)cccc3C(F)(F)F)nc12 [penoxsulam]
solubilities in acetochlor: > 1000 ppm
